Patent publication US20180193294A1, “Dehydroabietic acid (DHAA) derivatives for use as ion channel openers” (priority 2015, published 2018)

molecular target: 3R Shaker K channel (Drosophila melanogaster, UniProt P08510, A359R/M356R); assay: physchem; assay type: cell-based; settings: Table 1; 100 μM, pH 7.4, Xenopus oocytes
Text: A 3R Shaker K channel is a modified Shaker K channel where residues 356 and 359 are mutated to arginines.
All animal experiments were approved by the local Animal Care and Use Committee and followed international guidelines. A modified Shaker H4 channel^30, with removed N-type inactivation (ShH4IR)^31, here called the wild type (WT) channel, was expressed in oocytes. In addition, a modified 3R Shaker K channel where two introduced positive charged arginines (M356R and A359R) in addition to one native arginine (R362) makes the channel more sensitive to DHA^16, was expressed in oocytes and in a CHO—K1 stable cell line.
African clawed frogs (Xenopus laevis) were anesthetized with 1.4 g/L ethyl 3-aminobenzoate methanesulfonate salt (tricaine). After an incision through the abdomen a batch of oocytes were removed. Clusters of oocytes were separated by incubation for ˜1 h in a Ca-free O—R2 solution (in mM: 82.5 NaCl, 2 KCl, 5 HEPES, and 1 MgCl2; pH adjusted to 7.4 by NaOH) containing Liberase Blendzyme. The oocytes were then incubated at 8° C. in a modified Barth's solution (MBS; in mM: 88 NaCl, 1 KCl, 2.4 NaHCO3, 15 HEPES, 0.33 Ca(NO3)2, 0.41 CaCl2, and 0.82 MgSO4; pH adjusted to 7.6 by NaOH) supplemented with penicillin (25 U/ml), streptomycin (25 μg/ml), and sodium pyruvate (2.5 mM) 2-24 hours before injection. Fifty nl of cRNA (50 pg) were injected into each oocyte using a Nanoject injector (Drummond Scientific, Broomall, Pa.). Injected oocytes were kept at 8° C. in MBS until one day before electrophysiological recordings, when they were incubated at 16° C. All chemicals were supplied from Sigma-Aldrich (Stockholm, Sweden) if not stated otherwise.
All manual electrophysiological recordings were performed at room temperature (20-23° C.), using a GeneClamp 500B amplifier (for oocytes) or a Axopatch 200B amplifier (for manual patch clamp of CHO—K1 cells and DRG neurons) and a Digidata 1440A digitizer and pClamp 10 software (all from Molecular Devices, Inc., Sunnyvale, Calif., USA). Compounds were dissolved to 100 mM in 99.5% EtOH and stored at −20° C. Compounds were diluted in extracellular solution to the desired test concentration.
The oocyte was placed in a bath surrounded by 1K extracellular solution that contained (in mM): 88 NaCl, 1 KCl, 15 HEPES, 0.4 CaCl2, and 0.8 MgCl2, pH adjusted to 7.4 by NaOH (reaching a sodium concentration of ˜100 mM). Control solution was added to the bath with a gravity driven perfusion system. Compound solution was added to the bath manually with a syringe. Two glass microelectrodes were inserted into the oocyte using micromanipulators. […] All channels were closed when the potential was clamped to −80 mV and this voltage was set as the holding potential. Currents were evoked from the holding potential of −80 mV by 100-ms long, 5-mV steps ranging from −80 up to +50 mV (WT) and +70 mV (3R).
Conductance GK(V) was calculated as GK(V)=[…], (Eq. 1) where IK is the average current from the steady-state phase at the end of each 100-ms pulse, V is the membrane voltage, and Vrev is the reversal potential for K^+, (set to −80 mV for the oocytes, and calculated to be −89 mV for the CHO—K1 cells).
G(V)=A/(1+exp((V1/2−V)/s))^n (Eq. 2) where A is amplitude of the curve, V is the absolute membrane voltage, V1/2 is the midpoint, s is the slope and n is an exponent set to 4^17. The compound-induced G(V) shift was determined at the 10% level of the maximum conductance in control solution^17. The compound-induced G(V) shift in CHO—K1 was quantified by subtracting the control V1/2 from the compound V1/2 when n was set to 1.
Data for concentration and pH dependent G(V) shifts (ΔV) in oocytes were fit with a dose-response equation ΔV=ΔVmax/(1+c1/2/c), (Eq. 3) where Δvmax is the maximal shift, c1/2 is half maximal effective concentration/pKa value and c is the concentration.

3R Shaker K channel, sequence (P08510 whole entry M356R/A359R): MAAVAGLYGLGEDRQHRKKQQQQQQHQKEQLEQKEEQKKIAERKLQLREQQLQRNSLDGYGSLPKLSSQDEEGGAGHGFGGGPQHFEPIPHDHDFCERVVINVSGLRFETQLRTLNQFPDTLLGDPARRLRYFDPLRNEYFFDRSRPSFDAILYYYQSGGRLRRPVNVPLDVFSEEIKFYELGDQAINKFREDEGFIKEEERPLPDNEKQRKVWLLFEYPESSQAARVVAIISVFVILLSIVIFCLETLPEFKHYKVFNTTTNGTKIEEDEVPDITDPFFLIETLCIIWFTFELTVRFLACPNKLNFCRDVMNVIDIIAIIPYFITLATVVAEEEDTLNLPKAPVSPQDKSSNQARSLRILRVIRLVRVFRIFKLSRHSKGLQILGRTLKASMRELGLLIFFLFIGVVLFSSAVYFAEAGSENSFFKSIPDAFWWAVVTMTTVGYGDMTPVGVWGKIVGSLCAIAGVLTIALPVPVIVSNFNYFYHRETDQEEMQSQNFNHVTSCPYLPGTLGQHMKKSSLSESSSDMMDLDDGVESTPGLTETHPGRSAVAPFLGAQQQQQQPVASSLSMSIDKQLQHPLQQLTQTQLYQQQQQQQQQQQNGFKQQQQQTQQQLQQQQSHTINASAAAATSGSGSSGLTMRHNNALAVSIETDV

Compared with `CO/N=C1\CC2[C@](C)(C(=O)O)CCC[C@]2(C)c2cc(F)c(C(C)C)cc21` (stereo partly drawn) [Wu55, (1R,4aS,E)-6-fluoro-7-isopropyl-9-(methoxyimino)-1,4a-dimethyl-1,2,3,4,4a,9,10,10a-octahydrophenanthrene-1-carboxylic acid], `CO/N=C1\CC2[C@](C)(C(=O)O)CCC[C@]2(C)c2cc(I)c(C(C)C)cc21` (stereo partly drawn) [Wu64, (1R,4aS,E)-6-iodo-7-isopropyl-9-(methoxyimino)-1,4a-dimethyl-1,2,3,4,4a,9,10,10a-octahydrophenanthrene-1-carboxylic acid] is lower in “G(V) shift” value: −19.9 mV for the first, −22.2 mV for the second.

Compared with `CC(C)c1ccc2c(c1F)CC[C@H]1[C@](C)(C(=O)O)CCC[C@]21C` [Wu56, (1R,4aS,10aR)-8-fluoro-7-isopropyl-1,4a-dimethyl-1,2,3,4,4a,9,10,10a-octahydrophenanthrene-1-carboxylic acid], `CC(C)c1ccc2c(c1I)CCC1[C@](C)(C(=O)O)CCC[C@]21C` (stereo partly drawn) [Wu61, (1R,4aS,E)-8-iodo-7-isopropyl-1,4a-dimethyl-1,2,3,4,4a,9,10,10a-octahydrophenanthrene-1-carboxylic acid] is lower in “G(V) shift” value: −6.6 mV for the first, −18.3 mV for the second.

Going from `CC(C)c1cc2c(cc1I)[C@@]1(C)CCC[C@@](C)(C(=O)O)C1CC2` (stereo partly drawn) [Wu60, (1R,4aS,E)-6-iodo-7-isopropyl-1,4a-dimethyl-1,2,3,4,4a,9,10,10a-octahydrophenanthrene-1-carboxylic acid] to `CC(C)c1cc2c(cc1F)[C@@]1(C)CCC[C@@](C)(C(=O)O)[C@@H]1CC2` [Wu108, (1R,4aS,10aR)-6-fluoro-7-isopropyl-1,4a-dimethyl-1,2,3,4,4a,9,10,10a-octahydrophenanthrene-1-carboxylic acid], the “G(V) shift” value falls from −9.0 mV to −10.4 mV.

First: CC(C)c1cc2c(cc1I)[C@@]1(C)CCC[C@@](C)(C(=O)O)[C@@H]1CC2=O [Wu62, (1R,4aS,10aR)-6-iodo-7-isopropyl-9-oxo-1,4a-dimethyl-1,2,3,4,4a,9,10,10a-octahydrophenanthrene-1-carboxylic acid]
Second: CC(C)c1cc2c(cc1F)[C@@]1(C)CCC[C@@](C)(C(=O)O)[C@@H]1CC2=O [Wu116]
The “G(V) shift” value of the first is lower: −13.7 mV for the first, −4.4 mV for the second.

Compared with `C=CCO/N=C1\CC2[C@](C)(C(=O)O)CCC[C@]2(C)c2cc(I)c(C(C)C)cc21` (stereo partly drawn) [Wu63, (1R,4aS,E)-9-((allyloxy)imino)-6-iodo-7-isopropyl-1,4a-dimethyl-1,2,3,4,4a,9,10,10a-octahydrophenanthrene-1-carboxylic acid], `CC(C)c1cc2c(cc1I)[C@@]1(C)CCC[C@@](C)(C(=O)O)C1C/C2=N\O` (stereo partly drawn) [Wu86, (1R,4aS,E)-9-(hydroxyimino)-6-iodo-7-isopropyl-1,4a-dimethyl-1,2,3,4,4a,9,10,10a-octahydrophenanthrene-1-carboxylic acid] is lower in “G(V) shift” value: −19.3 mV for the first, −21.0 mV for the second.

First: CC(C)c1ccc2c(c1I)C(=O)C[C@H]1[C@](C)(C(=O)O)CCC[C@]21C [Wu68, (1R,4aS,10aR)-8-iodo-7-isopropyl-1,4a-dimethyl-9-oxo-1,2,3,4,4a,9,10,10a-octahydrophenanthrene-1-carboxylic acid]
Second: CC(C)c1ccc2c(c1F)C(=O)C[C@H]1[C@](C)(C(=O)O)CCC[C@]21C [Wu113]
The “G(V) shift” value of the first is lower: −26.0 mV for the first, −3.6 mV for the second.

Going from `CC(C)c1ccc2c(c1Br)C(=O)CC1[C@](C)(C(=O)O)CCC[C@]21C` (some centres unmarked) [Wu73] to `CC(C)c1ccc2c(c1Br)C(=NO)CC1C(C)(C(=O)O)CCCC21C` (centres unmarked) [Wu88], the “G(V) shift” value rises from −5.8 mV to −5.6 mV.

Going from `C=CCON=C1CC2C(C)(C(=O)O)CCCC2(C)c2ccc(C(C)C)c(Br)c21` (centres unmarked) [Wu75] to `C=CCO/N=C1\C[C@H]2[C@](C)(C(=O)O)CCC[C@]2(C)c2ccc(C(C)C)c(I)c21` [Wu91, (1R,4aS,10aR)-9-((allyloxy)imino)-8-iodo-7-isopropyl-1,4a-dimethyl-1,2,3,4,4a,9,10,10a-octahydrophenanthrene-1-carboxylic acid], the “G(V) shift” value falls from −8.6 mV to −12.5 mV.

Going from `C=Cc1c(C(C)C)ccc2c1CCC1[C@](C)(C(=O)O)CCC[C@]21C` (some centres unmarked) [Wu76] to `CC=Cc1c(C(C)C)ccc2c1CCC1[C@](C)(C(=O)O)CCC[C@]21C` (some centres unmarked) [Wu85], the “G(V) shift” value rises from −7.7 mV to −1.9 mV.

First: C=Cc1cc2c(cc1C(C)C)CCC1[C@](C)(C(=O)O)CCC[C@]21C (stereo partly drawn) [Wu78, (1R,4aS)-7-isopropyl-1,4a-dimethyl-6-vinyl-1,2,3,4,4a,9,10,10a-octahydrophenanthrene-1-carboxylic acid]
Second: CC=Cc1cc2c(cc1C(C)C)CCC1[C@](C)(C(=O)O)CCC[C@]21C (some centres unmarked) [Wu84]
The “G(V) shift” value of the first is lower: −13.2 mV for the first, −0.2 mV for the second.

Going from `CC(C)c1cc2c(cc1C1CC1)[C@@]1(C)CCC[C@@](C)(C(=O)O)C1CC2` (some centres unmarked) [Wu81] to `CC(C)c1cc(Cl)c2c(c1)CCC1C(C)(C(=O)O)CCCC21C` (centres unmarked) [Wu100], the “G(V) shift” value rises from −8.2 mV to −2.7 mV.

First: CC(C)c1cc2c(cc1I)C1(C)CCCC(C)(C(=O)O)C1CC2=NOCc1ccccc1 (centres unmarked) [Wu87]
Second: CC(C)c1ccc2c(c1Br)C(=NOCc1ccccc1)CC1C(C)(C(=O)O)CCCC21C (centres unmarked) [Wu89]
The “G(V) shift” value of the first is lower: −6.0 mV for the first, −5.2 mV for the second.

Going from `CO/N=C1\C[C@H]2[C@](C)(C(=O)O)CCC[C@]2(C)c2ccc(C(C)C)c(I)c21` [Wu90] to `C=Cc1cc2c(cc1C(C)C)/C(=N/OC)CC1[C@](C)(C(=O)O)CCC[C@]21C` (stereo partly drawn) [Wu119, (1R,4aS,E)-7-isopropyl-9-(methoxyimino)-1,4a-dimethyl-6-vinyl-1,2,3,4,4a,9,10,10a-octahydrophenanthrene-1-carboxylic acid], the “G(V) shift” value falls from −19.2 mV to −30.3 mV.

Going from `CC(C)c1cc(Cl)c2c(c1)C(O)CC1[C@](C)(C(=O)O)CCC[C@]21C` (some centres unmarked) [Wu101] to `CC(C)c1cc(Cl)c2c(c1)C(O)C[C@H]1[C@](C)(C(=O)O)CCC[C@]21C` (some centres unmarked) [Wu102], the “G(V) shift” value rises from −9.6 mV to −2.8 mV.

Going from `C=CCO/N=C1\C[C@H]2[C@](C)(C(=O)O)CCC[C@]2(C)c2c(Cl)cc(C(C)C)cc21` [Wu104, (1R,4aS,10aR)-9-((allyloxy)imino)-5-chloro-7-isopropyl-1,4a-dimethyl-1,2,3,4,4a,9,10,10a-octahydrophenanthrene-1-carboxylic acid] to `CO/N=C1\C[C@H]2[C@](C)(C(=O)O)CCC[C@]2(C)c2c(Cl)cc(C(C)C)cc21` [Wu105, (1R,4aS,10aR)-5-chloro-7-isopropyl-9-(methoxyimino)-1,4a-dimethyl-1,2,3,4,4a,9,10,10a-octahydrophenanthrene-1-carboxylic acid], the “G(V) shift” value falls from −12.9 mV to −23.2 mV.

Going from `CC(C)c1cc(Cl)c2c(c1O)CC[C@H]1[C@](C)(C(=O)O)CCC[C@]21C` [Wu106] to `CC(C)c1cc(Cl)c2c(c1Cl)CC[C@H]1[C@](C)(C(=O)O)CCC[C@]21C` [Wu112], the “G(V) shift” value falls from −3.4 mV to −14.7 mV.

Going from `C=CCON=C1CC2C(C)(C(=O)O)CCCC2(C)c2c(Cl)cc(C(C)C)c(Cl)c21` (centres unmarked) [Wu114] to `C=Cc1cc2c(cc1C(C)C)C(=O)C[C@H]1[C@](C)(C(=O)O)CCC[C@]21C` [Wu118], the “G(V) shift” value rises from −13.3 mV to 0.2 mV.

In the case of `C[C@@]1(C(=O)O)CCC[C@]2(C)c3ccc(Cl)c(Cl)c3CCC12` (stereo partly drawn) [Wu115, (1R,4aS)-7,8-dichloro-1,4a-dimethyl-1,2,3,4,4a,9,10,10a-octahydrophenanthrene-1-carboxylic acid], the “G(V) shift” value is reported as −24.2 mV.
